Data reported in patent US10111843B2, “Methods for treating brain injury” (HOUGH EAR INSTITUTE, priority 2011, dated 2018).

Columns and labels:
[1] = blood-brain barrier permeability by contrast-enhanced T1-weighted MRI; format: in vivo, rat; details: given as 300 mg/kg NAC plus 300 mg/kg HPN-07 i.p., MRI seven days after initial drug administration
Protocol: Male Long-Evans pigmented rats (with body weights between 360 and 400 g, Harlan Laboratories, Indianapolis, Ind.) were injected intraperitoneally with a combination of 300 mg/kg of NAC plus 300 mg/kg of HPN-07, which were both dissolved in 5 ml/kg of physiological saline solution. […] Drug or saline was administered once on the first day and then twice a day for the following two days.
Seven days after the initial drug administration magnetic resonance imaging (MRI) was used to detect the disruption of the blood-brain barrier (BBB). Contrast enhancement noted on post-contrast T1-weighted MRI after injection of contrast agent (Magnevist=GdDTPA) is indicative of blood-brain barrier disruption. The hyper intensity on the T1-weighted images is resulting from leakage of the gadolinium based contrast agent injected at the baseline.
The MRI parameters and image scale factor were kept constant for all T1-weighted images. The images were evaluated both visually and by region-of-interest (ROI) measurement. ROT measurements were obtained at the time-points (before and after injection of contrast material on T1-weighted images) brain.

[2] = test system: doublecortin; experiment: doublecortin immunostaining of hippocampus and entorhinal cortex after noise exposure; format: in vivo, chinchilla; details: for level of doublecortin staining in the entorhinal cortex: HPN-07 300 mg/kg i.p.
Protocol: In this Example, three-5 year old chinchilla were freedom divided into 3 groups (6 chinchilla at each time point in each group). Chinchilla in noise exposure and noise plus treatment groups were exposed to 105 dB SPL Octave band noise centered at 4 kHz for 6 hours. Chinchilla in the noise plus treatment group were received HPN-07 treatment (300 mg/kg, i.p) started 4 hours after noise exposure, and then twice a day for the following 2 days. Chinchilla in the normal control and the noise exposed only groups were received carrier solutions (i.p.). Chinchilla were euthanized and perfused with 4% paraformaldehyde in PBS 21 days and 6 months after noise exposure. Brains were dissected out and post-fixed in the fixative for one week. The brains were Cryosected at 30 μm. Goat anti-doublecortin (1:100) was used to label neural precursor cells. Images were taken from CA1 regions of hippocampus and the entorhinal cortex with a light microscope. Doublecortin staining reflects neurogenerosis in the brain after neuron damage and death after noise exposure.

[3] = stated as known; cited from earlier work

Molecule | blood-brain barrier permeability (% change in ROI signal intensity after Magnevist) [1] | blood-brain barrier permeability (% change in ROI signal intensity after Magnevist) ([1]; listed as 2,4-disulfonyl PBN) | level of doublecortin staining in the entorhinal cortex ([2]; 6 months post noise exposure) | density of doublecortin staining in the hippocampus ([2]; 6 months post noise exposure, HPN-07 300 mg/kg i.p. from 4 hours after noise) | level of doublecortin staining in the entorhinal cortex ([2]; 21 days post noise exposure) | blood-brain barrier permeability [3]
2,4-disulfonyl α-phenyl tertiary butyl nitrone [HPN-07] | effectively increases blood-brain barrier permeability | unexpectedly increases blood brain permeability | decreases the level of doubtecortin staining | comparable to the control subjects | decreases the level of doubtecortin staining | –
CC(=O)N[C@@H](CS)C(=O)O [NAC, N-acetylcysteine] | – | – | – | – | – | known to not increase blood-brain barrier permeability
